# Results as given in patent US6943253B2, “6-phenylpyrrolopyrimidinedione derivatives” (Almirall Prodesfarma S.A., priority 2000, dated 2005).
# Biological target: T1, cyclic GMP specific phosphodiesterase (PDE 5) (Homo sapiens, UniProt O76074)
# T1 construct: isolated from human platelet lysates by ion exchange chromatography using a Mono-Q column; from tissue; host or cells: human platelets (lysate, Mono-Q ion exchange fraction)
# Test: PDE 5 inhibitory activity, enzyme isolated from human platelet lysates
# Assay type: biochemical
# Settings: PDE 5 from human platelet lysates; 0.25 mM [3H]-cyclic GMP as substrate; read-out: IC50 PDE5
# Description: The cyclic GMP specific phosphodiesterase (PDE 5) was isolated from human platelet lysates by ion exchange chromatography using a Mono-Q column. The enzyme activity was determined using 0.25 mM [3H]-cyclic GMP as substrate. The purification of the enzyme and the assessment of the PDE 5 inhibitory activity of our compounds were performed essentially as described by R. W. Gristwood et al., Br. J. Pharmacol. 1992, 105:985-991.
row,Compound,IC50 [nM]
1,"CCCOc1ccc(S(=O)(=O)N2CCN(C)CC2)cc1-c1cc2c([nH]1)c(=O)n(C)c(=O)n2CCC [Example 12, 3-Methyl-6-[5-(4-methylpiperazine-1-sulphonyl)-2-propoxyphenyl]-1-propyl-1,5-dihydropyrrolo[3,2-d]pyrimidine-2,4-dione]",14
2,"CCCOc1ccc(S(=O)(=O)N2CCN(CC)CC2)cc1-c1cc2c([nH]1)c(=O)n(C)c(=O)n2CCC [Example 13, 6-[5-(4-Ethylpiperazine-1-sulphonyl)-2-propoxyphenyl]-3-methyl-1-propyl-1,5-dihydropyrrolo[3,2-d]pyrimidine-2,4-dione]",8
3,"CCCn1c(=O)n(C)c(=O)c2[nH]c(-c3cc(S(=O)(=O)N4CCN(C)CC4)ccc3OCC)c(Cl)c21 [Example 27, 7-Chloro-6-[2-ethoxy-5-(4-methylpiperazine-1-sulfonyl)phenyl]-3-methyl-1-propyl-1,5-dihydropyrrolo[3,2-d]pyrimidine-2,4-dione]",3.4
4,"CCCOc1ccc(S(=O)(=O)N2CCN(C)CC2)cc1-c1[nH]c2c(=O)n(C)c(=O)n(CCC)c2c1Cl [Example 33, 7-Chloro-3-methyl-6-[5-(4-methylpiperazine-1-sulfonyl)-2-propoxyphenyl]-1-propyl-1,5-dihydropyrrolo[3,2-d]pyrimidine-2,4-dione]",4.2
5,"CCCOc1ccc(S(=O)(=O)N2CCN(CC)CC2)cc1-c1[nH]c2c(=O)n(C)c(=O)n(CCC)c2c1Cl [Example 34, 7-Chloro-6-[5-(4-ethylpiperazine-1-sulfonyl)-2-propoxyphenyl]-3-methyl-1-propyl-1,5-dihydropyrrolo[3,2-d]pyrimidine-2,4-dione]",3.6
6,"CCCOc1ccc(S(=O)(=O)N2CCN(CCO)CC2)cc1-c1[nH]c2c(=O)n(C)c(=O)n(CCC)c2c1Cl [Example 35, 7-Chloro-6-{5-[4-(2-hydroxyethyl)piperazine-1-sulfonyl]-2-propoxyphenyl}-3-methyl-1-propyl-1,5-dihydropyrrolo[3,2-d]pyrimidine-2,4-dione]",3.4
7,"CCCn1c(=O)n(C)c(=O)c2[nH]c(-c3cc(S(=O)(=O)N4CCN(CCCO)CC4)ccc3OCC)c(Br)c21 [Example 47, 7-Bromo-6-{2-ethoxy-5-[4-(3-hydroxypropyl)piperazine-1-sulfonyl]phenyl}-3-methyl-1-propyl-1,5-dihydropyrrolo[3,2-d]pyrimidine-2,4-dione]",9.2
8,"CCCOc1ccc(S(=O)(=O)N2CCN(C)CC2)cc1-c1[nH]c2c(=O)n(C)c(=O)n(CCC)c2c1Br [Example 50, 7-Bromo-3-methyl-6-[5-(4-methylpiperazine-1-sulfonyl)-2-propoxyphenyl]-1-propyl-1,5-dihydropyrrolo[3,2-d]pyrimidine-2,4-dione]",4.5
9,"CCCOc1ccc(S(=O)(=O)N2CCN(CCO)CC2)cc1-c1[nH]c2c(=O)n(C)c(=O)n(CCC)c2c1Br [Example 55, 7-Bromo-6-{5-[4-(2-hydroxyethyl)piperazine-1-sulfonyl]-2-propoxyphenyl}-3-methyl-1-propyl-1,5-dihydropyrrolo[3,2-d]pyrimidine-2,4-dione]",6.6
10,"CCCOc1ccc(S(=O)(=O)N2CCN(CCCO)CC2)cc1-c1[nH]c2c(=O)n(C)c(=O)n(CCC)c2c1Br [Example 57, 7-Bromo-6-{5-[4-(3-hydroxypropyl)piperazine-1-sulfonyl]-2-propoxyphenyl}-3-methyl-1-propyl-1,5-dihydropyrrolo[3,2-d]pyrimidine-2,4-dione]",4
